Source: ChEMBL document CHEMBL3875212, “Novel thrombopoietin mimetic peptides bind c-Mpl receptor: Synthesis, biological evaluation and molecular modeling” (Bioorg Med Chem, 2017)
Activity calls are given as the source filed them. The calls are words filed in the database; no cut-off is given here. Residues, ends and D or L forms follow the SMILES beside them.

Target: T1, Thrombopoietin receptor (Homo sapiens) (UniProt P40238)
T1 sequence (whole entry): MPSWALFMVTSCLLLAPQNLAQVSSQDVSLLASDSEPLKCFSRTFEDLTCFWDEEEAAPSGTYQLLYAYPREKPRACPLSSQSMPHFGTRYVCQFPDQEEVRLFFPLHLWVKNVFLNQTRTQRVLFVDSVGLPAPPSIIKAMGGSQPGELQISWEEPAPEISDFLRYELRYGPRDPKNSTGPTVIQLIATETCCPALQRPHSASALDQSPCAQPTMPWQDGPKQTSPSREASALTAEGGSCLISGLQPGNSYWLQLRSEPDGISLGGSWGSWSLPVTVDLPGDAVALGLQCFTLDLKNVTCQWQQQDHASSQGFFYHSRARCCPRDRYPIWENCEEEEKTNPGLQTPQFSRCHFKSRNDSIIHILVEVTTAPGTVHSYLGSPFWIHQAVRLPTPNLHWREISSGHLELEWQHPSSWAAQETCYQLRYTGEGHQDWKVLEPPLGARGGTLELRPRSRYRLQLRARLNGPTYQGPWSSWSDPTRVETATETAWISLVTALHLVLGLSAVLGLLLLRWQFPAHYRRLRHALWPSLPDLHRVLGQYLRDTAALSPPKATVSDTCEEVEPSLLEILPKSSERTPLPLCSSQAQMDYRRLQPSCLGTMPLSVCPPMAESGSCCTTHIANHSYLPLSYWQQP
Test: Binding affinity to c-Mpl (unknown origin) expressed in […] NIH-3T3 cells after 48 hrs by dual-glo luciferase reporter gene assay relative to control
Format: cell-based
Conditions: NIH3T3

Row | Activity | Compound
1 | Active | CC[C@H](C)[C@H](N)C(=O)N[C@@H](CCC(=O)O)C(=O)NCC(=O)N1CCC[C@H]1C(=O)N[C@H](C(=O)N[C@@H](CC(C)C)C(=O)N[C@@H](CCCNC(=N)N)C(=O)N[C@@H](CCC(N)=O)C(=O)N[C@@H](Cc1c[nH]c2ccccc12)C(=O)N[C@@H](CC(C)C)C(=O)N[C@@H](C)C(=O)N[C@@H](C)C(=O)N[C@@H](CCCNC(=N)N)C(=O)N[C@@H](C)C(=O)NCC(=O)NCC(=O)NCC(=O)NCC(=O)N[C@@H](CO)C(=O)NCC(=O)NCC(=O)NCC(=O)N[C@@H](CO)C(=O)NCC(=O)N[C@H](C(=O)N[C@@H](CCC(=O)O)C(=O)NCC(=O)N1CCC[C@H]1C(=O)N[C@H](C(=O)N[C@@H](CC(C)C)C(=O)N[C@@H](CCCNC(=N)N)C(=O)N[C@@H](CCC(N)=O)C(=O)N[C@@H](Cc1c[nH]c2ccccc12)C(=O)N[C@@H](CC(C)C)C(=O)N[C@@H](C)C(=O)N[C@@H](C)C(=O)N[C@@H](CCCNC(=N)N)C(=O)N[C@@H](C)C(=O)O)[C@@H](C)O)[C@@H](C)CC)[C@@H](C)O (H-IEGPTLRQWLAARAGGGGSGGGSGIEGPTLRQWLAARA-OH)
2 | Active | CC[C@H](C)[C@H](N)C(=O)N[C@@H](CCC(=O)O)C(=O)NCC(=O)N1CCC[C@H]1C(=O)N[C@H](C(=O)N[C@@H](CC(C)C)C(=O)N[C@@H](CCCNC(=N)N)C(=O)N[C@@H](CCC(N)=O)C(=O)N[C@@H](Cc1c[nH]c2ccccc12)C(=O)N[C@@H](CC(C)C)C(=O)N[C@@H](C)C(=O)N[C@@H](C)C(=O)N[C@@H](CCCNC(=N)N)C(=O)N[C@@H](C)C(=O)NCC(=O)NCC(=O)NCC(=O)N[C@@H](CO)C(=O)NCC(=O)N[C@H](C(=O)N[C@@H](CCC(=O)O)C(=O)NCC(=O)N1CCC[C@H]1C(=O)N[C@H](C(=O)N[C@@H](CC(C)C)C(=O)N[C@@H](CCCNC(=N)N)C(=O)N[C@@H](CCC(N)=O)C(=O)N[C@@H](Cc1c[nH]c2ccccc12)C(=O)N[C@@H](CC(C)C)C(=O)N[C@@H](C)C(=O)N[C@@H](C)C(=O)N[C@@H](CCCNC(=N)N)C(=O)N[C@@H](C)C(=O)O)[C@@H](C)O)[C@@H](C)CC)[C@@H](C)O (H-IEGPTLRQWLAARAGGGSGIEGPTLRQWLAARA-OH)
3 | Active | CC[C@H](C)[C@H](N)C(=O)N[C@@H](CCC(=O)O)C(=O)NCC(=O)N1CCC[C@H]1C(=O)N[C@H](C(=O)N[C@@H](CC(C)C)C(=O)N[C@@H](CCCNC(=N)N)C(=O)N[C@@H](CCC(N)=O)C(=O)N[C@@H](Cc1c[nH]c2ccccc12)C(=O)N[C@@H](CC(C)C)C(=O)N[C@@H](C)C(=O)N[C@@H](C)C(=O)N[C@@H](CCCNC(=N)N)C(=O)N[C@@H](C)C(=O)NCC(=O)NCC(=O)N1CCC[C@H]1C(=O)N[C@@H](CO)C(=O)NCC(=O)N[C@H](C(=O)N[C@@H](CCC(=O)O)C(=O)NCC(=O)N1CCC[C@H]1C(=O)N[C@H](C(=O)N[C@@H](CC(C)C)C(=O)N[C@@H](CCCNC(=N)N)C(=O)N[C@@H](CCC(N)=O)C(=O)N[C@@H](Cc1c[nH]c2ccccc12)C(=O)N[C@@H](CC(C)C)C(=O)N[C@@H](C)C(=O)N[C@@H](C)C(=O)N[C@@H](CCCNC(=N)N)C(=O)N[C@@H](C)C(=O)O)[C@@H](C)O)[C@@H](C)CC)[C@@H](C)O (H-IEGPTLRQWLAARAGGPSGIEGPTLRQWLAARA-OH)
